The values below are quoted from earlier work in patent US20090054376A1, “BENZOFURAN DERIVATIVES WITH THERAPEUTIC ACTIVITIES” (Pharmos Corporation, priority 2005, published 2009).

Series [1] has as its system pentobarbital-induced sleep. The conditions noted are these: 10 mg/kg i.v.; cited from earlier work.
For series [2] the following is noted: 10 mg/kg i.v.; cited from earlier work.

Consider `C=C(C)[C@@H]1CC[C@](C)(O)[C@H]2Oc3cc(CCCCC)cc(O)c3[C@@H]12` [CBE], for which the “prolongation of pentobarbital-induced sleep” value in series [1] is “nor does it prolong pentobarbital-induced sleep”. Also, in series [2], the “effect on body temperature of mice” value was “does not affect body temperature of mice”.
